Several values for one entry are separate records, joined by “and”; a condition that tells them apart may be missing. Equal entries are not always repeated. Where two headings read alike, the source gives them in different places.
Tests used:
Type in all cases: cell-based
[1] = tested on: Candida albicans (C. albicans—ATCC 10231); assay: Synergy test, microtiter plate high resolution MIC assay, yeast in PDB medium; set-up: Qb (Second Component B) / Qa (First Component A): unit: ppm; settings: for MIC of the component acting alone (QA / QB): C. albicans 10231, PDB, 25° C.
Summary of the method: (§1)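 High-resolution microtiter MICs of BBIT or MBIT (component A) combined with a second microbicide (B), dilutions spanning 2–10,000 ppm active. E. coli ~5×10^6/mL in M9GY at 30 °C; C. albicans and A. niger 5×10^5/mL in PDB. Synergy index = Qa/QA + Qb/QB; >1 antagonism.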

[2] = tested on: Aspergillus niger (A. niger—ATCC 16404); assay: Synergy test, microtiter plate high resolution MIC assay, mold in PDB medium; set-up: Qb (Second Component B) / Qa (First Component A): unit: ppm
Summary of the method: as §1

[3] = tested on: Escherichia coli (E. coli—ATCC #8739); assay: Synergy test, microtiter plate high resolution MIC assay, bacterium in M9GY medium; set-up: Qa (First Component A) / Qb (Second Component B): unit: ppm; settings: for MIC of the component acting alone (QA / QB): E. coli 8739, M9GY, 30° C.
Summary of the method: as §1

[4] = A=MBIT, B=BBIT, C. albicans 10231 - PDB, 48 hours
[5] = A=MBIT, B=BBIT, A. niger 16404 - PDB, 4 days
[6] = A=MBIT, B=BBIT, E. coli 8739 - M9GY, 24 hours

In the case of CCCCn1sc2ccccc2c1=O [BBIT, N-(n-butyl)-1,2-benzisothiazolin-3-one], the “Qa (First Component A)” value [1] is reported as 10, the “SI (synergy index)” value [1] is reported as 1.00 and the “Qb (Second Component B)” value [1, 4] is reported as 6. For the same molecule, the “SI (synergy index)” value [1, 4] was 1.00, the “MIC of the component acting alone (QA / QB)” value (“MIC … (QA / QB)” for short) ([1]; 24 hours) was 7.5 ppm and 6 ppm and 8 ppm and the “MIC … (QA / QB)” value ([1]; 48 hours) was 10 ppm and 7.5 ppm and 8 ppm. The SI ([1]; C. albicans 10231 - PDB, 24 hours, BBIT + DMDMH) was 1.00, the SI ([1]; C. albicans 10231 - PDB, 24 hours, BBIT + DTBMA) was 1.00 and the SI ([1]; C. albicans 10231 - PDB, 24 hours, BBIT + EDTA) was 1.00. The SI ([1]; C. albicans 10231 - PDB, 24 hours, BBIT + hexamidine diisethionate) was 1.00, the SI ([1]; C. albicans 10231 - PDB, 24 hours, BBIT + hexylene glycol) was 1.00 and the “Qa (First Component A = BBIT)” value ([1]; C. albicans 10231 - PDB, 24 hours, BBIT alone (Qb 0) or in mixture with DMDMH) was 7.5. For the same molecule, the “Qa (First Component A = BBIT)” value ([1]; C. albicans 10231 - PDB, 24 hours, BBIT alone (Qb 0) or in mixture with DTBMA) was 15, the “Qa (First Component A = BBIT)” value ([1]; C. albicans 10231 - PDB, 24 hours, BBIT alone (Qb 0) or in mixture with EDTA) was 7.5 and the “Qa (First Component A = BBIT)” value ([1]; C. albicans 10231 - PDB, 24 hours, BBIT alone (Qb 0) or in mixture with hexamidine diisethionate) was 10. For the same molecule, the “Qa (First Component A = BBIT)” value ([1]; C. albicans 10231 - PDB, 24 hours, BBIT alone (Qb 0) or in mixture with hexylene glycol) was 10, the SI ([1]; C. albicans 10231 - PDB, 24 hours, BBIT with Methylparaben) was 1.00 and the SI ([1]; C. albicans 10231 - PDB, 24 hours, BBIT with Pentylene glycol) was 1.00. The SI ([1]; C. albicans 10231 - PDB, 24 hours, BBIT with Phenoxyethanol) was 1.00, the SI ([1]; C. albicans 10231 - PDB, 24 hours, BBIT with Phospholipid EFA) was 1.00 and the SI ([1]; C. albicans 10231 - PDB, 24 hours, BBIT with Phospholipid PTC) was 1.00. The SI ([1]; C. albicans 10231 - PDB, 24 hours, BBIT with Potassium sorbate) was 1.00, the SI ([1]; C. albicans 10231 - PDB, 24 hours, BBIT with Propylparaben) was 1.00 and the SI ([1]; C. albicans 10231 - PDB, 24 hours, BBIT with Quaternium-15) was 1.00. The SI ([1]; C. albicans 10231 - PDB, 24 hours, BBIT with SDHA) was 1.00, the SI ([1]; C. albicans 10231 - PDB, 48 hours, BBIT with Sodium benzoate) was 1.00 and the SI ([1]; C. albicans 10231 - PDB, 72 hours, BBIT + hexetidine) was 1.00. The “Qa (First Component A = BBIT)” value ([1]; C. albicans 10231 - PDB, 72 hours, BBIT alone (Qb 0) or in mixture with hexetidine) was 15, the “Qa (First Component A)” value [2] was 40 and the “SI (synergy index)” value [2] was 1.00. For the same molecule, the “MIC … (QA / QB)” value ([2]; A. niger 16404, PDB, 4 days, 25° C.) was 15 ppm, the SI ([2]; A. niger 16404 - PDB, 3 days, BBIT + hexylene glycol) was 1.00 and the “Qa (First Component A = BBIT)” value ([2]; A. niger 16404 - PDB, 3 days, BBIT alone (Qb 0) or in mixture with hexylene glycol) was 15. It also gave an SI ([2]; A. niger 16404 - PDB, 3 days, BBIT with Methylparaben) of 1.00, an SI ([2]; A. niger 16404 - PDB, 3 days, BBIT with Phospholipid PTC) of 1.00 and an SI ([2]; A. niger 16404 - PDB, 3 days, BBIT with Potassium sorbate) of 1.00. For the same molecule, the SI ([2]; A. niger 16404 - PDB, 4 days, BBIT + hexetidine) was 1.00, the “Qa (First Component A = BBIT)” value ([2]; A. niger 16404 - PDB, 4 days, BBIT alone (Qb 0) or in mixture with hexetidine) was 20 and the SI ([2]; A. niger 16404 - PDB, 4 days, BBIT with Pentylene glycol) was 1.00. The SI ([2]; A. niger 16404 - PDB, 4 days, BBIT with Phospholipid EFA) was 1.00, the SI ([2]; A. niger 16404 - PDB, 4 days, BBIT with Quaternium-15) was 1.00 and the SI ([2]; A. niger 16404 - PDB, 7 days, BBIT + DMDMH) was 1.00. For the same molecule, the SI ([2]; A. niger 16404 - PDB, 7 days, BBIT + DTBMA) was 1.00, the SI ([2]; A. niger 16404 - PDB, 7 days, BBIT + EDTA) was 1.00 and the “Qa (First Component A = BBIT)” value ([2]; A. niger 16404 - PDB, 7 days, BBIT alone (Qb 0) or in mixture with DMDMH) was 80. For the same molecule, the “Qa (First Component A = BBIT)” value ([2]; A. niger 16404 - PDB, 7 days, BBIT alone (Qb 0) or in mixture with DTBMA) was 40, the “Qa (First Component A = BBIT)” value ([2]; A. niger 16404 - PDB, 7 days, BBIT alone (Qb 0) or in mixture with EDTA) was 40 and the SI ([2]; A. niger 16404 - PDB, 7 days, BBIT with Phenoxyethanol) was 1.00. It also gave an SI ([2]; A. niger 16404 - PDB, 7 days, BBIT with Propylparaben) of 1.00, an SI ([2]; A. niger 16404 - PDB, 7 days, BBIT with SDHA) of 1.00 and an SI ([2]; A. niger 16404 - PDB, 7 days, BBIT with Sodium benzoate) of 1.00. For the same molecule, the “Qb (Second Component B)” value [2, 5] was 40, the “SI (synergy index)” value [2, 5] was 1.00 and the “Qa (First Component A)” value [3] was 200. For the same molecule, the “SI (synergy index)” value [3] was 1.00, the “Qb (Second Component B)” value [3, 6] was 100 and the “SI (synergy index)” value [3, 6] was 1.00. The “MIC … (QA / QB)” value ([3]; 24 hours) was 200 ppm and 100 ppm, the “MIC … (QA / QB)” value ([3]; 48 hours) was 100 ppm and the “MIC … (QA / QB)” value ([3]; 72 hours) was 100 ppm. For the same molecule, the SI ([3]; E. coli 8739 - M9GY, 24 hours, BBIT + hexylene glycol) was 1.00, the “Qa (First Component A = BBIT)” value ([3]; E. coli 8739 - M9GY, 24 hours, BBIT alone (Qb 0) or in mixture with hexylene glycol) was 100 and the SI ([3]; E. coli 8739 - M9GY, 24 hours, BBIT with Pentylene glycol) was 1.00. The SI ([3]; E. coli 8739 - M9GY, 24 hours, BBIT with Potassium sorbate) was 1.00, the SI ([3]; E. coli 8739 - M9GY, 24 hours, BBIT with Propylparaben) was 1.00 and the SI ([3]; E. coli 8739 - M9GY, 24 hours, BBIT with SDHA) was 1.00. The SI ([3]; E. coli 8739 - M9GY, 24 hours, BBIT with Sodium benzoate) was 1.00, the SI ([3]; E. coli 8739 - M9GY, 48 hours, BBIT + DTBMA) was 1.00 and the SI ([3]; E. coli 8739 - M9GY, 48 hours, BBIT + hexamidine diisethionate) was 1.00. The “Qa (First Component A = BBIT)” value ([3]; E. coli 8739 - M9GY, 48 hours, BBIT alone (Qb 0) or in mixture with DTBMA) was 100, the “Qa (First Component A = BBIT)” value ([3]; E. coli 8739 - M9GY, 48 hours, BBIT alone (Qb 0) or in mixture with hexamidine diisethionate) was 6 and the SI ([3]; E. coli 8739 - M9GY, 48 hours, BBIT with Phospholipid EFA) was 1.00. It also gave an SI ([3]; E. coli 8739 - M9GY, 72 hours, BBIT + DMDMH) of 1.00, an SI ([3]; E. coli 8739 - M9GY, 72 hours, BBIT + EDTA) of 1.00 and an SI ([3]; E. coli 8739 - M9GY, 72 hours, BBIT + hexetidine) of 1.00. The “Qa (First Component A = BBIT)” value ([3]; E. coli 8739 - M9GY, 72 hours, BBIT alone (Qb 0) or in mixture with DMDMH) was 100, the “Qa (First Component A = BBIT)” value ([3]; E. coli 8739 - M9GY, 72 hours, BBIT alone (Qb 0) or in mixture with EDTA) was 100 and the “Qa (First Component A = BBIT)” value ([3]; E. coli 8739 - M9GY, 72 hours, BBIT alone (Qb 0) or in mixture with hexetidine) was 80. It also gave an SI ([3]; E. coli 8739 - M9GY, 72 hours, BBIT with Methylparaben) of 1.00, an SI ([3]; E. coli 8739 - M9GY, 72 hours, BBIT with Phenoxyethanol) of 1.00 and an SI ([3]; E. coli 8739 - M9GY, 72 hours, BBIT with Phospholipid PTC) of 1.00. For the same molecule, the SI ([3]; E. coli 8739 - M9GY, 72 hours, BBIT with Quaternium-15) was 1.00.

Source: patent US8741940B2, “Microbicidal composition” (Rohm and Haas Company, priority 2005, dated 2014)
